In patent publication US11071769B2, “Lipo-glycopeptide cleavable derivatives and uses thereof” (Insmed Incorporated, priority 2017, dated 2021):
Values after ≈ are worked out from the molar mass of the structure shown.

Experiments:
[1] = tested on: MRSA isolate ATCC BAA-1556; test: MIC, CLSI-guided broth susceptibility testing, MRSA 1556; format: cell-based, Staphylococcus aureus; settings: for MIC: Staphylococcus aureus, read-out: MIC Values, MRSA 1556; for MIC Values, MRSA 1556: MRSA isolate ATCC BAA-1556
Description: (§1) Compounds of the invention were evaluated for their ability to inhibit bacterial growth in two MRS A strains—MRS A 1556 and MRS A 29213. Table 2 provides MIC concentrations for metabolites of the ester and amide compounds, RV80 (metabolite of RV65 ester) and RV82 (metabolite of RV62 amide). MIC values for vancomycin and telavancin are also provided.
(§2) MIC Testing: Glycopeptide compounds were dissolved in 100% DMSO. In vitro activities were determined using CLSI-guided broth susceptibility testing to measure drug minimum inhibitory concentrations (MICs) of the compounds against the quality control strain ATCC 29213 (MSSA) and the MRS A isolate ATCC BAA-1556.

[2] = tested on: quality control strain ATCC 29213 (MSSA); test: MIC, CLSI-guided broth susceptibility testing, MSSA 29213; format: cell-based, Staphylococcus aureus; settings: for MIC: Staphylococcus aureus, read-out: MIC Values, MSSA 29213; for MIC Values, MSSA 29213: ATCC 29213 (MSSA)
Description: as §1, §2

[3] = Metabolism (hydrolysis) in rat plasma; format: in vitro ADME; settings: 37° C.; for degradant detected in plasma: 50 μg/mL
Description: RV62 and RV65 were dissolved in 100% DMSO. Stock solutions were diluted using rat plasma to contain less than 1% organic solvent with a final drug concentration of 50 μg/mL. Samples were briefly vortexed and then incubated in a shaker set to 37° C. and 300 rpm. Aliquots were removed at specified time points and store at −80° C. until extraction and analysis. Samples were extracted using a solution of 10% TCA and analyzed using LCMS.

[4] = Degradation (hydrolysis) in Tris buffer by HPLC; format: physicochemical; settings: 1 mM Tris buffer pH 6.99, 40° C., 72 h
Description: RV62 and RV65 degradation was determined according to the following procedures.
Compounds were dissolved and diluted with 1 mM Tris buffer (pH 6.99) to achieve a concentration of 54 μg/mL (stock solution). 0.5 mL of stock solution was further diluted with acetonitrile to a total volume of 10 mL. The stock solution was incubated at 40° C., with samples withdrawn at 3, 6, 24, and 72 h and tested by HPLC.
HPLC method: Samples were injected onto a 100×2.1 mm Waters Cortecs HILIC with a particle size of 1.6 μm. The mobile phase consisted of water (0.1% formic acid) and acetonitrile (0.1% formic acid). The analytic method utilized a gradient from 10% water (0.1% formic acid)/90% acetonitrile (0.1% formic acid) to 70% water (0.1% formic acid)/30% acetonitrile (0.1% formic acid). The HPLC instrument was equipped with a UV detector (280 nm). Compounds were identified by mass.

In the case of `CN[C@H](CC(C)C)C(=O)N[C@H]1C(=O)N[C@@H](CC(N)=O)C(=O)N[C@H]2C(=O)N[C@H]3C(=O)N[C@H](C(=O)N[C@@H](C(=O)O)c4cc(O)cc(O)c4-c4cc3ccc4O)[C@H](O)c3ccc(c(Cl)c3)Oc3cc2cc(c3O[C@@H]2O[C@H](CO)[C@@H](O)[C@H](O)[C@H]2O[C@H]2C[C@](C)(NCCN)[C@H](O)[C@H](C)O2)Oc2ccc(cc2Cl)[C@H]1O` [RV82], the MIC [1] is reported as 3 µg/mL (≈ 2.01 µM) and the MIC [2] is reported as 3 µg/mL (≈ 2.01 µM).
For `CCCCCCCCCCCC(=O)NCCNC1(C)CC(OC2C(Oc3c4cc5cc3Oc3ccc(cc3Cl)C(O)C3NC(=O)C(NC(=O)C5NC(=O)C(CC(N)=O)NC(=O)C(NC(=O)C(CC(C)C)NC)C(O)c5ccc(c(Cl)c5)O4)c4ccc(O)c(c4)-c4c(O)cc(O)cc4C(C(=O)O)NC3=O)OC(CO)C(O)C2O)OC(C)C1O` (centres unmarked) [RV62], the “MIC Values, MRSA 1556” value [1] was 0.023 µg/mL (≈ 0.0137 µM), the “fold more efficacious than RV65 (MIC)” value ([1]; compared with RV65, the ester with the lowest measured MIC, Table 1, both strains) was “about 3 ×” and the “MIC Values, MSSA 29213” value [2] was 0.023 µg/mL (≈ 0.0137 µM). For the same compound, the “degradant detected in plasma” value ([3]; 24 h incubation) was 6%.
With `CNC(CC(C)C)C(=O)NC1C(=O)NC(CC(N)=O)C(=O)NC2C(=O)NC3C(=O)NC(C(=O)NC(C(=O)O)c4cc(O)cc(O)c4-c4cc3ccc4O)C(O)c3ccc(c(Cl)c3)Oc3cc2cc(c3OC2OC(CO)C(O)C(O)C2OC2CC(C)(NCCO)C(O)C(C)O2)Oc2ccc(cc2Cl)C1O` (centres unmarked) [RV80] the “MIC Values, MRSA 1556” value [1] was 1 µg/mL (≈ 0.67 µM) and the “MIC Values, MSSA 29213” value [2] was 1 µg/mL (≈ 0.67 µM).
`CCCCCCCCCCNCCN[C@@]1(C)C[C@H](O[C@H]2[C@H](Oc3c4cc5cc3Oc3ccc(cc3Cl)[C@@H](O)[C@@H](NC(=O)[C@@H](CC(C)C)NC)C(=O)N[C@@H](CC(N)=O)C(=O)N[C@H]5C(=O)N[C@H]3C(=O)N[C@H](C(=O)N[C@H](C(=O)O)c5cc(O)c(CNCP(=O)(O)O)c(O)c5-c5cc3ccc5O)[C@H](O)c3ccc(c(Cl)c3)O4)O[C@H](CO)[C@@H](O)[C@@H]2O)O[C@@H](C)[C@H]1O` [Telavancin, telavancin, reference compound] showed an MIC [1] of 0.063 µg/mL (≈ 0.0359 µM) and an MIC [2] of 0.063 µg/mL (≈ 0.0359 µM).
With `CCCCCCCC(=O)OCCNC1(C)CC(OC2C(Oc3c4cc5cc3Oc3ccc(cc3Cl)C(O)C3NC(=O)C(NC(=O)C5NC(=O)C(CC(N)=O)NC(=O)C(NC(=O)C(CC(C)C)NC)C(O)c5ccc(c(Cl)c5)O4)c4ccc(O)c(c4)-c4c(O)cc(O)cc4C(C(=O)O)NC3=O)OC(CO)C(O)C2O)OC(C)C1O` (centres unmarked) [RV90] the “MIC Values, MRSA 1556” value [1] was 0.250 µg/mL (≈ 0.154 µM) and the “MIC Values, MSSA 29213” value [2] was 0.250 µg/mL (≈ 0.154 µM).
With `CCCCCCCCCCCCCCCC(=O)OCCNC1(C)CC(OC2C(Oc3c4cc5cc3Oc3ccc(cc3Cl)C(O)C3NC(=O)C(NC(=O)C5NC(=O)C(CC(N)=O)NC(=O)C(NC(=O)C(CC(C)C)NC)C(O)c5ccc(c(Cl)c5)O4)c4ccc(O)c(c4)-c4c(O)cc(O)cc4C(C(=O)O)NC3=O)OC(CO)C(O)C2O)OC(C)C1O` (centres unmarked) [RV89] the “MIC Values, MRSA 1556” value [1] was 1.000 µg/mL (≈ 0.577 µM) and the “MIC Values, MSSA 29213” value [2] was 0.500 µg/mL (≈ 0.289 µM).
For `CCCCCCCCCC(=O)NCCNC1(C)CC(OC2C(Oc3c4cc5cc3Oc3ccc(cc3Cl)C(O)C3NC(=O)C(NC(=O)C5NC(=O)C(CC(N)=O)NC(=O)C(NC(=O)C(CC(C)C)NC)C(O)c5ccc(c(Cl)c5)O4)c4ccc(O)c(c4)-c4c(O)cc(O)cc4C(C(=O)O)NC3=O)OC(CO)C(O)C2O)OC(C)C1O` (centres unmarked) [RV56], the “MIC Values, MRSA 1556” value [1] was 0.063 µg/mL (≈ 0.0383 µM) and the “MIC Values, MSSA 29213” value [2] was 0.063 µg/mL (≈ 0.0383 µM).
With `CCCCCCCCCCCCCCCC(=O)NCCNC1(C)CC(OC2C(Oc3c4cc5cc3Oc3ccc(cc3Cl)C(O)C3NC(=O)C(NC(=O)C5NC(=O)C(CC(N)=O)NC(=O)C(NC(=O)C(CC(C)C)NC)C(O)c5ccc(c(Cl)c5)O4)c4ccc(O)c(c4)-c4c(O)cc(O)cc4C(C(=O)O)NC3=O)OC(CO)C(O)C2O)OC(C)C1O` (centres unmarked) [RV91] the “MIC Values, MRSA 1556” value [1] was 0.250 µg/mL (≈ 0.144 µM) and the “MIC Values, MSSA 29213” value [2] was 0.188 µg/mL (≈ 0.109 µM).
In the case of `CCCCCCCCCC(=O)OCCNC1(C)CC(OC2C(Oc3c4cc5cc3Oc3ccc(cc3Cl)C(O)C3NC(=O)C(NC(=O)C5NC(=O)C(CC(N)=O)NC(=O)C(NC(=O)C(CC(C)C)NC)C(O)c5ccc(c(Cl)c5)O4)c4ccc(O)c(c4)-c4c(O)cc(O)cc4C(C(=O)O)NC3=O)OC(CO)C(O)C2O)OC(C)C1O` (centres unmarked) [RV54], the “MIC Values, MRSA 1556” value [1] is reported as 0.167 µg/mL (≈ 0.101 µM) and the “MIC Values, MSSA 29213” value [2] is reported as 0.146 µg/mL (≈ 0.0886 µM).
In the case of `CCCCCCCCCCCCNC(=O)CNC1(C)CC(OC2C(Oc3c4cc5cc3Oc3ccc(cc3Cl)C(O)C3NC(=O)C(NC(=O)C5NC(=O)C(CC(N)=O)NC(=O)C(NC(=O)C(CC(C)C)NC)C(O)c5ccc(c(Cl)c5)O4)c4ccc(O)c(c4)-c4c(O)cc(O)cc4C(C(=O)O)NC3=O)OC(CO)C(O)C2O)OC(C)C1O` (centres unmarked) [RV95], the “MIC Values, MRSA 1556” value [1] is reported as 0.031 µg/mL (≈ 0.0185 µM) and the “MIC Values, MSSA 29213” value [2] is reported as 0.031 µg/mL (≈ 0.0185 µM).
With `CCCCCCCC(=O)NCCNC1(C)CC(OC2C(Oc3c4cc5cc3Oc3ccc(cc3Cl)C(O)C3NC(=O)C(NC(=O)C5NC(=O)C(CC(N)=O)NC(=O)C(NC(=O)C(CC(C)C)NC)C(O)c5ccc(c(Cl)c5)O4)c4ccc(O)c(c4)-c4c(O)cc(O)cc4C(C(=O)O)NC3=O)OC(CO)C(O)C2O)OC(C)C1O` (centres unmarked) [RV93] the “MIC Values, MRSA 1556” value [1] was 0.125 µg/mL (≈ 0.0772 µM) and the “MIC Values, MSSA 29213” value [2] was 0.125 µg/mL (≈ 0.0772 µM).
For `CCCCCCCCCCCC(=O)OCCNC1(C)CC(OC2C(Oc3c4cc5cc3Oc3ccc(cc3Cl)C(O)C3NC(=O)C(NC(=O)C5NC(=O)C(CC(N)=O)NC(=O)C(NC(=O)C(CC(C)C)NC)C(O)c5ccc(c(Cl)c5)O4)c4ccc(O)c(c4)-c4c(O)cc(O)cc4C(C(=O)O)NC3=O)OC(CO)C(O)C2O)OC(C)C1O` (centres unmarked) [RV65], the “MIC Values, MRSA 1556” value [1] was 0.094 µg/mL (≈ 0.0561 µM), the “peak area for the cleaved glycopeptide, of the total” value [4] was “about 42%” and the “MIC Values, MSSA 29213” value [2] was 0.063 µg/mL (≈ 0.0376 µM). For the same compound, the “degradant detected in plasma” value ([3]; 6 h incubation) was ~90% and the “metabolism in plasma compared to RV62” value ([3]; over 24 h) was “metabolized faster”.
